Molecules are shown by their SMILES. Where “and” joins values, the source holds several entries; their conditions need not be identical. Equal values may be shown once.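 Cultured in 96-well plates, cells were exposed to test compound for 48 hours across five concentrations. GI50 marks 50% less growth. TGI marks complete inhibition of growth.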 Some results are limits rather than exact numbers.

Drawing on PubChem BioAssay (NCI), this text covers TGI and GI50 for 18 compounds.

Test systems include SF-539 CNS; OVCAR-4 ovarian; OVCAR-8 ovarian; SK-MEL-5 melanoma; U251 CNS; A498 renal; SF-268 CNS; SNB-19 CNS; UACC-62 melanoma; SN12C renal; SK-MEL-2 melanoma.
What all share (test): NCI anticancer screen, dose series, 48 h

With `COC1OC(C(=O)CP(=O)(OC)OC)C(OCc2ccccc2)C(OCc2ccccc2)C1OCc1ccccc1` (stereo not given), the TGI with SF-539 CNS is 33 µM and 31.9 µM; in the test on OVCAR-4 ovarian, 28.4 µM and 36.7 µM; with OVCAR-8 ovarian it was 36.8 µM and 44.5 µM; in the test on SK-MEL-5 melanoma, 28.6 µM and 28.7 µM; in the test with U251 CNS, 29 µM and 30.3 µM; in the test on A498 renal, 27.1 µM. In addition, the TGI in the test with SF-268 CNS was 37.9 µM and 33.5 µM; in the test with SNB-19 CNS, 29.7 µM and 30.3 µM; in the test with UACC-62 melanoma, 26.6 µM and 28 µM; in the test with SN12C renal it was 30.1 µM and 30 µM; in the test on SK-MEL-2 melanoma it was 30.7 µM and 31.3 µM.
Regarding `O=C(COC(c1ccc(F)cc1)c1ccc(F)cc1)N1CCN(CCCc2ccccc2)CC1`, the TGI with SF-539 CNS is 17.3 µM; with OVCAR-4 ovarian, 12.6 µM; with OVCAR-8 ovarian, 14.6 µM; with SK-MEL-5 melanoma, 6.9 µM; in the test on U251 CNS, 14.8 µM; in the test on A498 renal, 12.6 µM. For the same compound, the TGI with SF-268 CNS was determined as 16.4 µM; in the test with SNB-19 CNS it was 15.2 µM; with UACC-62 melanoma, 16.5 µM; in the test on SN12C renal, 11.3 µM; with SK-MEL-2 melanoma, 15.4 µM.
Consider `Fc1cc(C2=C[C@H](c3ccc4c(c3)OCO4)NC(=S)N2)c(Cl)cc1Cl`, for which the TGI with SF-539 CNS is > 100 µM; in the test on OVCAR-4 ovarian, > 100 µM; with OVCAR-8 ovarian, > 100 µM; with SK-MEL-5 melanoma, 25.9 µM; in the test with U251 CNS it was > 100 µM; in the test with A498 renal it was 79 µM. In addition, the TGI was > 100 µM in the test with SF-268 CNS; > 100 µM in the test with SNB-19 CNS; > 100 µM with UACC-62 melanoma; 90.8 µM in the test with SN12C renal; 62.7 µM in the test on SK-MEL-2 melanoma.
Regarding `CC(C)(C)c1ccc(O)c(Br)c1`, the TGI with SF-539 CNS, in the test on OVCAR-4 ovarian, in the test on OVCAR-8 ovarian, in the test with SK-MEL-5 melanoma, in the test on U251 CNS and in the test with A498 renal was > 100 µM each time. Besides, the TGI in the test on SF-268 CNS, in the test with SNB-19 CNS, in the test on UACC-62 melanoma, with SN12C renal and in the test on SK-MEL-2 melanoma was > 100 µM throughout.
`COc1cccc(/C=N/[N-]C(N)=O)c1[O-].[Cu+2].[OH3+].c1cnc2c(c1)ccc1cccnc12`: the TGI turned out to be 21.6 µM in the test on SF-539 CNS; 24.7 µM with OVCAR-4 ovarian; 31.9 µM in the test with OVCAR-8 ovarian; 16.1 µM in the test with SK-MEL-5 melanoma; 17.7 µM with U251 CNS; 21.8 µM with A498 renal. Also, the TGI is 60.7 µM in the test with SF-268 CNS; 34.2 µM with SNB-19 CNS; 22.3 µM in the test on UACC-62 melanoma; > 100 µM in the test with SN12C renal; 32.1 µM in the test on SK-MEL-2 melanoma.
`COc1cc(S(=O)(=O)N/N=C/C=C/c2ccccc2)c(OC)cc1NC(C)=O`: the TGI in the test with SF-539 CNS is 81.7 µM; in the test with OVCAR-4 ovarian, > 100 µM; in the test on OVCAR-8 ovarian, > 100 µM; with SK-MEL-5 melanoma, 33.3 µM; with A498 renal, > 100 µM; with SF-268 CNS, > 100 µM. For the same compound, the TGI with SNB-19 CNS, with UACC-62 melanoma, in the test with SN12C renal and in the test on SK-MEL-2 melanoma was > 100 µM each time.
For the compound `COC(=O)c1c(O)ccc2c1c1c(n2Cc2ccccn2)C(=O)c2ccccc2C1`, the TGI in the test with SF-539 CNS, with OVCAR-4 ovarian, in the test with OVCAR-8 ovarian, in the test on SK-MEL-5 melanoma, in the test on U251 CNS and with A498 renal was > 100 µM in each case. In addition, the TGI in the test on SF-268 CNS, in the test on SNB-19 CNS, in the test on UACC-62 melanoma, in the test with SN12C renal and in the test with SK-MEL-2 melanoma was > 100 µM in each case.
For the compound `Cc1cc(O)c2c(c1O)C(=O)c1c(O)ccc(O)c1C2=O`, the TGI in the test on SF-539 CNS, in the test with OVCAR-4 ovarian, in the test on OVCAR-8 ovarian, in the test on SK-MEL-5 melanoma, in the test on U251 CNS and with A498 renal was > 100 µM throughout. Further, the TGI in the test with SF-268 CNS, in the test on SNB-19 CNS, with UACC-62 melanoma, in the test on SN12C renal and in the test on SK-MEL-2 melanoma was > 100 µM each time.
Consider `O=CC(O)C(O)C(O)COc1cc(CO)cc2c1C(=O)c1ccccc1C2=O` (stereo not given), for which the TGI in the test on SF-539 CNS, in the test on OVCAR-4 ovarian, in the test on OVCAR-8 ovarian, in the test on SK-MEL-5 melanoma, with U251 CNS and in the test on A498 renal was > 100 µM each time. The TGI with SF-268 CNS, in the test on SNB-19 CNS, in the test on UACC-62 melanoma, with SN12C renal and in the test with SK-MEL-2 melanoma was > 100 µM in each case.
Take `CN(C)C/C=C(/c1ccc(Br)cc1)c1cccnc1`: the TGI was > 100 µM with SF-539 CNS; > 100 µM in the test on OVCAR-4 ovarian; > 100 µM with OVCAR-8 ovarian; 45.5 µM with SK-MEL-5 melanoma; > 100 µM in the test on U251 CNS; 57.8 µM with A498 renal. Besides, the TGI was > 100 µM in the test with SF-268 CNS; > 100 µM with SNB-19 CNS; 39.1 µM in the test on UACC-62 melanoma; > 100 µM in the test with SN12C renal; 37.6 µM in the test on SK-MEL-2 melanoma.
On to `O=c1oc2c(ccc3occc32)c(N2CCCCC2)c1-c1ccccc1`, for which the TGI with SF-539 CNS, in the test with OVCAR-4 ovarian, with OVCAR-8 ovarian, in the test on SK-MEL-5 melanoma, with U251 CNS and in the test with A498 renal was > 100 µM each time. Also, the TGI with SF-268 CNS, with SNB-19 CNS, in the test on UACC-62 melanoma, with SN12C renal and in the test with SK-MEL-2 melanoma was > 100 µM each time.
Consider `CC(C)(C)OC(=O)N1C(C2=COc3ccccc3O2)=COc2cccnc21`, for which the TGI is 4.01 µM with SF-539 CNS; 4.2 µM in the test with OVCAR-4 ovarian; 4.06 µM with OVCAR-8 ovarian; 3.17 µM in the test with SK-MEL-5 melanoma; 3.13 µM in the test on U251 CNS; 3.32 µM with A498 renal. The TGI stood at 3.93 µM with SF-268 CNS, 3.17 µM in the test on UACC-62 melanoma, 3.37 µM with SN12C renal and 3.96 µM with SK-MEL-2 melanoma.
On to `NCCCCN`, for which the TGI was > 100 µM with SF-539 CNS; 51.5 µM in the test with OVCAR-4 ovarian; > 100 µM in the test on OVCAR-8 ovarian; > 100 µM in the test with SK-MEL-5 melanoma; > 100 µM in the test with U251 CNS; > 100 µM in the test on A498 renal. For the same compound, the TGI in the test on SF-268 CNS, in the test on SNB-19 CNS, with UACC-62 melanoma and with SK-MEL-2 melanoma was > 100 µM each time.
Consider `Cn1c2c(c3c(=O)[nH]ncc31)CCc1ccccc1-2`, for which the TGI in the test with SF-539 CNS is > 100 µM; with OVCAR-4 ovarian, > 100 µM; with OVCAR-8 ovarian, > 100 µM; in the test on SK-MEL-5 melanoma it was 35.1 µM; with U251 CNS, > 100 µM; in the test with A498 renal it was 45.7 µM. Moreover, the TGI in the test with SF-268 CNS was > 100 µM; with SNB-19 CNS, > 100 µM; in the test with SN12C renal, > 100 µM; with SK-MEL-2 melanoma, 57.1 µM.
For the compound `NC(N)=NS(=O)(=O)c1ccc(Nc2c3ccccc3nc3c(C(=O)N4CCN(CCO)CC4)ccc(Cl)c23)cc1`, the TGI with SF-539 CNS, in the test on OVCAR-4 ovarian, in the test with OVCAR-8 ovarian, with SK-MEL-5 melanoma, with U251 CNS and with A498 renal was > 100 µM each time. Moreover, the TGI with SF-268 CNS, with SNB-19 CNS, in the test on UACC-62 melanoma, in the test on SN12C renal and with SK-MEL-2 melanoma was > 100 µM in each case.
For the compound `C=C1CCCC(C)(C)[C@@H]1CC/C(C)=C/Cn1c2cccc(=O)c-2nc2ccccc21`, the GI50 in the test with SF-539 CNS was 3.01 µM; with OVCAR-4 ovarian, 6.28 µM; in the test on OVCAR-8 ovarian, 4.28 µM; with U251 CNS it was 10.7 µM; with A498 renal, 7.76 µM; in the test with SNB-19 CNS, 9.54 µM. The GI50 with SN12C renal was 5.57 µM; in the test on SK-MEL-2 melanoma, 6.62 µM. The TGI in the test on SF-539 CNS was 9.57 µM and 3.55 µM; in the test on SK-MEL-5 melanoma, 13.8 µM; in the test on A498 renal it was 70.2 µM and 14.1 µM; in the test with SF-268 CNS, 3.71 µM; in the test with SNB-19 CNS, 60.2 µM and 15.8 µM; in the test on UACC-62 melanoma, 2.47 µM.
For `CCOc1cc(NC(C)=O)ccc1C(=O)N/N=C/c1ccco1`, the TGI in the test with SF-539 CNS, with OVCAR-4 ovarian, in the test on OVCAR-8 ovarian, with SK-MEL-5 melanoma, with A498 renal and with SF-268 CNS was > 100 µM each time. In addition, the TGI in the test on UACC-62 melanoma, with SN12C renal and in the test on SK-MEL-2 melanoma was > 100 µM throughout.
`O=P(O)(O)OP(=O)(O)O`: the TGI with SF-539 CNS, in the test with OVCAR-4 ovarian, in the test on OVCAR-8 ovarian, in the test on SK-MEL-5 melanoma, in the test with U251 CNS and in the test with A498 renal was > 100 µM in each case. The TGI with SF-268 CNS, with SNB-19 CNS, in the test with UACC-62 melanoma, in the test on SN12C renal and in the test with SK-MEL-2 melanoma was > 100 µM each time.
